Source: patent US9839632B2, “Methods and compositions using 4-amino-2-(2,6-dioxo-piperidine-3-yl)-isoindoline-1,3-dione for treatment and management of central nervous system cancers” (CELGENE CORPORATION, priority 2013, dated 2017)

Legend:
[1] = tested on: macrophages and NK cells in the CNS lymphoma microenvironment; assay: Immunohistochemistry/immunofluorescence of CNS lymphoma microenvironment, Raji model; type: in vivo, athymic mice; conditions: P<0.05 vs control
Source text: Immunohistochemistry (“IHC”) assessment for macrophages: Paraffin sections (10 μm thick) were fixed, blocked, and immunostained with the appropriate antibody: Iba-1 (BD Biosciences) for macrophages, Ym1 (Stemcell Technologies) as a marker for M2 polarization, iNOS (Calbiochem) as a marker for M1 polarization. Aperio ScanScope XT slide scanner and image analysis system (Aperio Spectrum, Vista, Calif.) were used for quantitative assessment of macrophages. Three equal-size (0.4 mM2) fields in macrophage-dense areas were selected in the contralateral brain and the tumor for counting. Data were shown as an average of the three fields.
Immunofluorescence for natural killer cells: Frozen sections (10 μm thick) were permeabilized with PBS-0.2% Triton X-100 for 5 min. After blocking with PBS-5% goat serum-0.02% Triton X-100 for 45 mins at 37° C., the sections were incubated overnight at 4° C. with Rat monoclonal CD335 antibody (a marker for NK cells, 1:200, Biolegend). After washing, sections were incubated with the Alexa Fluor 594 Goat anti-Rat IgG secondary antibody (1:1000, Life Technologies) at 37° C. for 1.5 h. Finally, Vectashield H-1200 mounting medium with DAPI (Vector Laboratories) was used to stain the nuclei. Images were obtained on a Zeiss LSM 510 META confocal microscope. Six equal-size (0.2 mM^2) fields in NK-dense areas were selected in the tumor for taking pictures. Fluorescence intensity data were generated by Zeiss LSM 510 and shown as an average of six fields.
Statistical analysis: One-way ANOVA was used to compare the difference between the groups at each time point. Two-way repeated measures ANOVA was used to analyze the interaction between the time and treatment. Survival analysis was performed by Kaplan Meier method. Kaplan Meier survival curves were generated using Prism4 software and the statistical difference between curves was derived with a log-rank test. P<0.05 was considered significant.

[2] = tested on: primary murine microglia cells; assay: Phagocytosis assay, primary murine microglia cells; type: cell-based; conditions: 3 or 10 ug/ml, 48 hours, P<0.05 vs control
Experimental: Phagocytosis assay: The impact of 4-amino-2-(2,6-dioxo-piperidine-3-yl)-isoindoline-1,3-dione on the phagocytic activity of macrophages was assessed in primary microglial cells and human monocyte cells (U937). The cells were cultured in complete medium for 4 days. They were then harvested and resuspended in Opti-MEM medium at 10^6 cells/ml and seeded in a 96 well plate at 100,000 viable cells/well. The experimental wells were treated with 4-amino-2-(2,6-dioxo-piperidine-3-yl)-isoindoline-1,3-dione 3 or 10 ug/ml. After 48 hours of treatment, the culture medium was quickly replaced with 100 ul of pHrodo BioParticles suspension (Life technologies and the cells were incubated in the suspension at 37° C. for 2-3 hours. Following incubation, the plates were scanned at 550 nm/600 nm (excitation/emission) using fluorescence plate reader. The fluorescence activity reflects the phagocytic activity of the macrophages. The impact of 4-amino-2-(2,6-dioxo-piperidine-3-yl)-isoindoline-1,3-dione treatment (% effect) was calculated as a fraction of the phagocytic activity in the positive control wells. Wan, C. P.; et al., J. Immunol. Methods, 1993, 162, pp. 1-7.

[3] = listed as 4-amino-2-(2,6-dioxo-piperidine-3-yl)-isoindoline-1,3-dione

Compound: Nc1cccc2c1C(=O)N(C1CCC(=O)NC1=O)C2=O (centres unmarked) [Pomalidomide, 4-amino-2-(2,6-dioxo-piperidine-3-yl)-isoindoline-1,3-dione]
- CD335 positive NK cells in CNS tumors [1]: significantly increased
- Ym1-expressing cells (M2-polarized macrophages) in tumor [1]: significantly decreased
- iNOS-expressing cells (M1-polarized macrophages) in tumor [1]: increased
- CD335 positive NK cells in CNS tumors [1, 3]: significant increase
- Ym1-expressing cells (M2-polarized macrophages) in tumor [1, 3]: significant decrease
- iNOS-expressing cells (M1-polarized macrophages) in tumor [1, 3]: significant increase
- brain macrophages (Iba-1 positive cells) ([1]; contralateral brain and tumor): significantly increased
- phagocytic activity [2]: significantly increased
